pIC50: −log10 of the molar value. Activity calls are given as the source filed them. The calls are words filed in the database; no cut-off is given here.
Assays:
[1] = system: Kidney; assay: Release of H2S in mouse kidney homogenate at 10 to 300 uM measured for 10 mins by methylene blue formation assay; type: ADME, tissue-based; conditions: tissue homogenate, dose 10-300 µM
[2] = Toxicity in histamine-induced mouse itching mouse model assessed as reduction in locomotion at 15 mg/kg ip; type: organism-based; conditions: in vivo
[3] = Plasma concentration in mouse at 1 mg/kg, ip measured after 30 mins by LC-MS/MS analysis; type: ADME, organism-based
[4] = Toxicity in mouse assessed as sedative effect by measuring reduction in locomotion at 70 mg/kg ip; type: organism-based; conditions: in vivo
[5] = Drug metabolism in mouse assessed as fold increase in plasma HDZ at 50 mg/kg, ip by LC-MS/MS analysis; type: ADME, organism-based; conditions: in vivo
[6] = system: Mus musculus; assay: Antihistamine effect in mouse assessed as Inhibition of histamine-induced increase vascular leakage in skin tissue at 15 mg/kg, ip pretreated 30 mins before Evans blue injection followed by injected with histamine mouse euthanized and skin excised by Miles assay; type: functional, organism-based
[7] = system: Mus musculus; assay: Antipruritic effect in mouse assessed as reduction in histamine-induced itching duration at 15 mg/kg ip pretreated 30 mins before histamine and recorded for 10 mins; type: functional, organism-based
[8] = system: Mus musculus; assay: Antipruritic effect in mouse assessed as reduction in PAR-2-induced itching duration at 15 mg/kg ip pretreated 30 mins before histamine and recorded for 10 mins; type: functional, organism-based
[9] = system: Mus musculus; assay: Antipruritic effect in mouse assessed as reduction in histamine-induced itching duration at 60 to 120 mg/kg ip pretreated 30 mins before histamine and recorded for 10 mins; type: functional; conditions: dose 60-120 mg/kg, 0.5 h
[10] = (§1) Antihistamine effect in HUVEC cells assessed as inhibition of histamine-induced tissue factor expression pretreated 30 mins before addition of his measured after 2 hrs after addition of TRIzol by spectrophotometry; type: functional, cell-based; conditions: Homo sapiens, HUVE
[11] = system: HUVE; assay: as §1; type: functional, cell-based; conditions: Homo sapiens
[12] = Toxicity in histamine-induced mouse itching mouse model assessed as reduction in locomotion at 60 to 120 mg/kg ip; type: organism-based; conditions: in vivo, dose 60-120 mg/kg
[13] = system: HepG2; assay: Release of H2S in human HepG2 cells measured for 24 hrs by lead acetate method; type: ADME, cell-based; conditions: hepg2, 24 h, dose 0.5-3 mM
[14] = system: Mus musculus; assay: Antipruritic effect in mouse assessed as reduction in PAR-2-induced itching duration at 10 mg/kg ip pretreated 30 mins before histamine and recorded for 10 mins; type: functional, organism-based
[15] = system: Mus musculus; assay: Antipruritic effect in mouse assessed as reduction in histamine-induced itching duration at 30 mg/kg ip pretreated 30 mins before histamine and recorded for 10 mins; type: functional, organism-based
[16] = system: Mus musculus; assay: Antipruritic effect in mouse assessed as reduction in histamine-induced itching duration at 10 mg/kg ip pretreated 30 mins before histamine and recorded for 10 mins; type: functional, organism-based
[17] = system: Mus musculus; assay: Antihistamine effect in mouse assessed as Inhibition of histamine-induced increase vascular leakage in skin tissue at 10 mg/kg, ip pretreated 30 mins before Evans blue injection followed by injected with histamine mouse euthanized and skin excised by Miles assay; type: functional, organism-based
[18] = Plasma concentration in mouse at 10 mg/kg, ip measured after 30 mins by LC-MS/MS analysis
[19] = system: Mus musculus; assay: Antipruritic effect in mouse assessed as reduction in histamine-induced itching duration at 3.5 mg/kg ip pretreated 30 mins before histamine and recorded for 10 mins relative to HDZ; type: functional, organism-based
[20] = system: Mus musculus; assay: Antipruritic effect in mouse assessed as reduction in histamine-induced itching duration at 20 mg/kg ip pretreated 30 mins before histamine and recorded for 10 mins; type: functional, organism-based
[21] = system: Mus musculus; assay: Antihistamine effect in mouse assessed as Inhibition of histamine-induced increase vascular leakage in skin tissue at 50 mg/kg, ip pretreated 30 mins before Evans blue injection followed by injected with histamine mouse euthanized and skin excised by Miles assay; type: functional, organism-based
[22] = system: Mus musculus; assay: Antipruritic effect in mouse assessed as reduction in PAR-2-induced itching duration at 50 mg/kg ip pretreated 30 mins before histamine and recorded for 10 mins; type: functional, organism-based
[23] = Drug metabolism in mouse assessed as fold increase in plasma CET at 50 mg/kg, ip by LC-MS/MS analysis; type: ADME, organism-based; conditions: in vivo
[24] = system: Mus musculus; assay: Antipruritic effect in mouse assessed as reduction in histamine-induced itching duration at 50 mg/kg ip pretreated 30 mins before histamine and recorded for 10 mins relative to CET; type: functional, organism-based
[25] = system: Mus musculus; assay: Antipruritic effect in mouse assessed as reduction in histamine-induced itching duration at 5 mg/kg ip pretreated 30 mins before histamine and recorded for 10 mins; type: functional, organism-based
[26] = system: Mus musculus; assay: Antipruritic effect in mouse assessed as reduction in histamine-induced itching duration at 1 mg/kg ip pretreated 30 mins before histamine and recorded for 10 mins; type: functional, organism-based
[27] = system: Mus musculus; assay: Antihistamine effect in mouse assessed as Inhibition of histamine-induced increase vascular leakage in skin tissue at 1 mg/kg, ip pretreated 30 mins before Evans blue injection followed by injected with histamine mouse euthanized and skin excised by Miles assay; type: functional, organism-based
[28] = Toxicity in mouse assessed as sedative effect by measuring reduction in locomotion at 50 mg/kg ip; type: organism-based; conditions: in vivo
[29] = system: Mus musculus; assay: Antipruritic effect in mouse assessed as reduction in PAR-2-induced itching duration at 1 mg/kg ip pretreated 30 mins before histamine and recorded for 10 mins; type: functional, organism-based

NC(=S)c1ccc(OC(=O)CCC(=O)OCCOCCN2CCN(C(c3ccccc3)c3ccc(Cl)cc3)CC2)cc1 (stereo unspecified)
Drug metabolism [1]: Dose-Dependent Effect | Activity [2]: Non-Toxic | concentration at 0.5 h [3]: 0.0361 µg/mL | Activity [4]: Non-Toxic | fold change (FC) [5]: 15 | inhibition [6]: Active | inhibition [7]: Active | inhibition [8]: Active | inhibition (INH) [9]: 100% | pIC50 [10]: 6.22 | inhibition [11]: Dose-Dependent Effect | Activity [12]: Toxic

C[C@H]1CN(C2CCC(C#N)(c3ccc(F)cc3)CC2)CC[C@@]1(C(=O)Oc1ccc(-c2cc(=S)ss2)cc1)c1ccccc1 (stereo partly specified)
Drug metabolism [1]: Dose-Dependent Effect | Drug metabolism [13]: Dose-Dependent Effect

O=C(O)COCCN1CCN(C(c2ccccc2)c2ccc(Cl)cc2)CC1 (stereo unspecified) [CETIRIZINE]
inhibition [14]: Active | Activity [4]: Toxic | Activity [15]: Active | Activity [16]: Active | inhibition [17]: Active | concentration at 0.5 h [18]: 8.46 µg/mL | pIC50 [10]: 6.77 | inhibition [11]: Dose-Dependent Effect

NC(=S)c1ccccc1
inhibition [19]: Active

O=C(COCCN1CCN(C(c2ccccc2)c2ccc(Cl)cc2)CC1)OCCCCCCOc1ccc(-c2cc(=S)ss2)cc1 (racemic)
Drug metabolism [1]: Dose-Dependent Effect

Oc1ccc(-c2cc(=S)ss2)cc1
inhibition [20]: Active

CCOCCn1c(C2CCN(CCc3ccc(C(C)(C)C(=O)Oc4ccc(C(N)=S)cc4)cc3)CC2)nc2ccccc21
Drug metabolism [1]: Dose-Dependent Effect

NC(=S)c1ccc(OCCCCCCOC(=O)COCCN2CCN(C(c3ccccc3)c3ccc(Cl)cc3)CC2)cc1 (racemic)
Drug metabolism [1]: Dose-Dependent Effect | pIC50 [10]: 8.10 | inhibition [11]: Dose-Dependent Effect

O=C(CCC(=O)Oc1ccc(-c2cc(=S)ss2)cc1)OCCOCCN1CCN(C(c2ccccc2)c2ccc(Cl)cc2)CC1 (racemic)
Drug metabolism [1]: Dose-Dependent Effect | Drug metabolism [13]: Dose-Dependent Effect | pIC50 [10]: 8.26 | inhibition [11]: Dose-Dependent Effect

C[C@H]1CN(C2CCC(C#N)(c3ccc(F)cc3)CC2)CC[C@@]1(C(=O)Oc1ccc(C(N)=S)cc1)c1ccccc1 (stereo partly specified)
Drug metabolism [1]: Dose-Dependent Effect

O=C(COCCN1CCN(C(c2ccccc2)c2ccc(Cl)cc2)CC1)OCCOc1ccc(-c2cc(=S)ss2)cc1 (racemic)
Drug metabolism [1]: Dose-Dependent Effect | Drug metabolism [13]: Dose-Dependent Effect | inhibition [21]: Active | inhibition [22]: Active | fold change (FC) [23]: 3 | inhibition [24]: Active | pIC50 [10]: 6.09 | inhibition [11]: Dose-Dependent Effect

CCOCCn1c(C2CCN(CCc3ccc(C(C)(C)C(=O)Oc4ccc(-c5cc(=S)ss5)cc4)cc3)CC2)nc2ccccc21
Drug metabolism [1]: Dose-Dependent Effect | Drug metabolism [13]: Dose-Dependent Effect

OCCOCCN1CCN(C(c2ccccc2)c2ccc(Cl)cc2)CC1 (stereo unspecified) [HYDROXYZINE]
Activity [25]: Active | Activity [26]: Active | inhibition [27]: Active | Activity [28]: Toxic | inhibition [29]: Active | pIC50 [10]: 8.31 | inhibition [11]: Dose-Dependent Effect

— ChEMBL document CHEMBL5346951, “Novel H2S-Releasing Bifunctional Antihistamine Molecules with Improved Antipruritic and Reduced Sedative Actions” (J Med Chem, 2023)
